According to patent EP0201094A2, “Thieno[2,3-d]imidazole derivatives and process for their preparation” (Hafslund Nycomed Pharma Aktiengesellschaft, priority 1985, dated 1986):

Tested on: Magensekretion
Test: Gastric secretion in pylorus-ligated conscious female rats after oral dosing
Type: in vivo, Ratten (Stamm: Charles River CD)
Settings: for Säure gesamt / Säurekonzentration / Menge: pylorus ligation 60 min after dosing; for Säure gesamt / Säurekonzentration: measured 4 h after ligation; for Menge: stomach content measured 4 h after ligation; for Hemmung der Magensekretion: result in words, increasing oral doses of 125, 250 and 500 µmol/kg
Experimental: Die Substanzen wurden in 20 %-igem Dimethylsulfoxid gelöst und wachen weiblichen Ratten - (Stamm: Charles River CD) in ansteigenden Dosen von 125, 250 und 500 µmol/kg mit dem einheitlichen Dosierungsvolumen von 20 ml/kg oral appliziert. 60 Minuten später wurden die Tiere einer Pylorusligatur unterzogen. 4 Stunden nach Setzen der Pylorusligatur wurde die Säurekonzentration und der Gesamtsäuregehalt im Magenvolumen der Tiere bestimmt. Die Kontrollgruppe erhielt 20 ml/kg Dimethylsulfoxid bzw. 20 ml/kg destilliertes Wasser.

COc1c(C)cnc(C[S+]([O-])c2nc3cc(C(C)=O)sc3[nH]2)c1C (centres unmarked) [Verbindung A, 5-Acetyl-2-((4-methoxy-3,5-dimethyl-2-pyridyl)-methylsulfinyl)-3H-thieno(2,3-d)imidazol]
Säure gesamt (125 µmol/kg oral): 0.37±0.06 mÄq
Säurekonzentration (125 µmol/kg oral): 0.08±0.008 mÄq/ml
Menge (125 µmol/kg oral): 4.7 ± 0.4 mL
Säure gesamt (250 µmol/kg oral): 0.16±0.03 mÄq
Säurekonzentration (250 µmol/kg oral): 0.04±0.006 mÄq/ml
Menge (250 µmol/kg oral): 3.4 ± 0.3 mL
Säure gesamt (500 µmol/kg oral): 0.13±0.03 mÄq
Säurekonzentration (500 µmol/kg oral): 0.04±0.005 mÄq/ml
Menge (500 µmol/kg oral): 3.1 ± 0.4 mL
Hemmung der Magensekretion: signifikante, dosisabhängige Hemmung der Magensekretion

COc1ccnc(C[S+]([O-])c2nc3ccsc3[nH]2)c1 (centres unmarked) [Verbindung B]
Säure gesamt (125 µmol/kg oral): 0.37±0.07 mÄq
Säurekonzentration (125 µmol/kg oral): 0.08±0.007 mÄq/ml
Menge (125 µmol/kg oral): 4.5 ± 0.6 mL
Säure gesamt (250 µmol/kg oral): 0.27±0.05 mÄq
Säurekonzentration (250 µmol/kg oral): 0.05±0.004 mÄq/ml
Menge (250 µmol/kg oral): 5.0 ± 0.6 mL
Säure gesamt (500 µmol/kg oral): 0.14±0.02 mÄq
Säurekonzentration (500 µmol/kg oral): 0.03±0.004 mÄq/ml
Menge (500 µmol/kg oral): 4.5 ± 0.4 mL
Hemmung der Magensekretion: signifikante, dosisabhängige Hemmung der Magensekretion
